Laboratory results taken from US10617710B2, “Agent for sedating response to external stimulation in skin and method for sedating that response” (Shiseido Company, Ltd, priority 2014, dated 2020).

Test system: CD39 gene expression
Assay: CD39 expression promoting effect in human Langerhans cell-like cells (THP-1) under dexamethasone stress, RT-PCR
Assay type: cell-based
Conditions: THP-1 cells, 10 nM dexamethasone added, versus dexamethasone non-addition group
Description: THP-1 cells (American Type Culture Collection, VA, USA) were used as a substitute for human Langerhans cells. Approximately 200,000 THP-1 cells were cultured to confluence in RPMI1640 medium containing 10% FBS. Following culturing, stress hormone in the form of 10 nM dexamethasone was added followed by the respective addition of 0.1% polyoxyethylene (POE) 14/polyoxypropylene (POP) 7 random copolymer dimethyl ether (A), 0.01% of a 2% aqueous solution of sodium carboxymethyl-beta glucan (CM-Glucan, Mibelle Biochemistry) (B) and 0.1% rosewater (Bulgaria Rose Water, Toyotama International) (C). Moreover, a three-type mixture group (ABC) was added that incorporated one-third each of all three components. After culturing for 24 hours after addition, RNA was extracted using Isogen (Wako Pure Chemical Industries) followed by synthesis of cDNA using Superscript III and random primers (Invitrogen). RT-PCR was carried out with the Prism 7900HT (ABI) using SYBR Green (Invitrogen) and the primers indicated below.
During this RT-PCR, ribosomal protein S9 was used as normalization factor.

C[C@@H]1C[C@H]2[C@@H]3CCC4=CC(=O)C=C[C@]4(C)[C@@]3(F)[C@@H](O)C[C@]2(C)[C@@]1(O)C(=O)CO [dexamethasone]
CD39 gene expression level (RT-PCR, normalized to ribosomal protein S9): expression of CD39 decreased
